# Several values for one entry are separate records, joined by “and”; a condition that tells them apart may be missing. Equal values may be shown once.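 Each compound was tested at five concentrations against cells in 96-well plates for 48 hours. Abbreviation: GI50, concentration required for 50% inhibition of growth. At the TGI there is no net growth.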
# Tested on: MDA-MB-468 breast
# Experiment: NCI tumour cell line growth inhibition, 48 h
Compound,GI50,TGI
Cc1nn(-c2ccc(Cl)cc2)c2nc3c(nc12)C(=O)C(=O)c1ccccc1-3,13900 nM,> 100000 nM
CCC[CH2][Sn]1([CH2]CCC)[O]C2C(CO)OC(n3ccc(N)nc3=O)C2[O]1 (configuration not stated),471 nM,2000 nM
NC(=O)Nc1cc(-c2cccc(F)c2)sc1C(=O)N[C@H]1CCCNC1,591 nM and 398 nM,2350 nM and 1640 nM
Cc1nn(C)c(COc2ccc(N3CCN(S(=O)(=O)N(C)C)CC3)cc2)c1-c1cccc2c(CCCOc3cccc4ccccc34)c(C(=O)O)n(CCN3CCOCC3)c12,1910 nM,5360 nM
COc1ccc(C2C(C#N)=C(N)Oc3c2sc2ccc(C)cc32)cc1 (configuration not stated),2420 nM,9740 nM
c1ccc2[nH]c(-c3cc(-c4ccc5c(c4)OCO5)n[nH]3)nc2c1,3570 nM,17200 nM
NC(=O)c1ccc(-c2nc(-c3ccc4c(c3)OCO4)c(-c3ccccn3)[nH]2)cc1,> 25000 nM and 21600 nM,> 25000 nM and 57000 nM
COC(=O)C1=C(C)NC(C)=C(C(=O)OCC(C)C)C1c1ccccc1[N+](=O)[O-] (configuration not stated),2830 nM,9630 nM
CC(C)=CCc1c2c(c(O)c3c1O[C@]14C(=C[C@@H]5C[C@H]1C(C)(C)O[C@@]4(C/C=C(/C)C(=O)O)C5=O)C3=O)CC(O)C(C)(C)O2 (some centres not stated),12100 nM,27600 nM
CC(C)CCNCC(O)Cn1c2ccccc2c2ccccc21 (configuration not stated),1950 nM,4350 nM
Cc1[nH]c2ccc(F)cc2c1-c1nc2c3cccnc3c3ncccc3c2[nH]1,201 nM,787 nM
O=c1c(O)c(-c2ccc(O)c(O)c2)oc2cc(O)cc(O)c12,6670 nM,47200 nM
CCN1C(=O)N(CC)C2C1NN=c1s/c(=C\c3ccccn3)c(=O)n12 (configuration not stated),523 nM,5670 nM
Cc1ccc(-c2nc3nc(-c4ccccc4)nc(N4CCNCC4)c3o2)cc1,310 nM,1230 nM
COC(=O)Nc1nc2ccc(Oc3cccc(NC(=O)Nc4cc(C(F)(F)F)ccc4F)c3)cc2[nH]1,7870 nM,> 23100 nM
Oc1cccc2ccc(-c3nnc(SCc4ccc(O)c5ncccc45)o3)nc12,986 nM,8490 nM
CC1=C(CCC(C)NCc2ccc(OCCCN3CCCCC3)cc2)C(C)(C)CCC1 (configuration not stated),1530 nM,3120 nM
COc1cnc2c(c1)C(=O)c1c-2n(CCCNC2=NCCS2)c(=O)c2cc(Cl)ccc12,86 nM,2180 nM
Nc1ccccc1C#C/C=C\C#Cc1cccc(O)c1,1380 nM,20400 nM
Cc1ccc(C(=O)NC2CCC2)cc1-c1ccc(C(=O)NCC2CC2)cc1,> 17200 nM,> 25000 nM
COc1cc(OC)c(C(=O)/C=C/c2cccc(C#N)c2)c(OC)c1,792 nM,2460 nM
Nc1c(C(=O)c2cccc(-c3cccnc3)c2)cnn1-c1ccc(F)cc1F,2970 nM,> 25000 nM
COc1ccc(Cl)c(Nc2nc3ccccc3nc2NS(=O)(=O)c2cccc(NC(=O)C(C)(C)N)c2)c1,2630 nM and 1620 nM,14800 nM and > 10000 nM
O=[N+]([O-])c1ccc(N=Nc2ccc(O)c3ccccc23)cc1,3260 nM,30600 nM
Cc1ccc2c(n1)C(=O)C(Cl)=C(Nc1cccc(C(F)(F)F)c1)C2=O,1770 nM,3660 nM
Nc1ncnc2c1c(-c1ccc(Oc3ccccc3)cc1)nn2C[C@@H]1SSC[C@H]1O,349 nM,2610 nM
